Reference: PMC4393181, “The Chemopotential Effect of Annona muricata Leaves against Azoxymethane-Induced Colonic Aberrant Crypt Foci in Rats and the Apoptotic Effect of Acetogenin Annomuricin E in HT-29 Cells: A Bioassay-Guided Approach” (PLoS ONE, 2015)
Converted amounts (≈) assume the structure as drawn. Read-outs that look alike come from different tables or passages of the source. One block for each compound: values may come before it.

How the values were obtained:
Bax [1] = assay: Immunohistochemistry of colon tissue sections for Bax; format: in vivo, Sprague Dawley rats; conditions: AOM-induced rats; EEAML both doses (250 and 500 mg/kg), 5-FU 35 mg/kg
Protocol: (§1) Immunohistochemical evaluation of proliferating cell nuclear antigen (PCNA), Bax and Bcl-2 proteins was performed on deparaffinized tissue sections using the commercial Dako ARK Peroxidase kit (DAKO, Carpinteria, CA, USA) according to the vendor’s instructions. In brief, the antigen retrieval process of tissue sections was performed using 10 mM citrate buffer (pH 6.0); the tissue sections were then washed with PBS and blocked with peroxidase blocking buffer. Next, the tissue sections were incubated with diluted mouse PCNA (1:100, Cat: ab2426), Bax (1:100, Cat: ab7977) and Bcl-2 (1:100, Cat: ab7973) antibodies (Abcam, Cambridge, MA, USA) for 15 min. All of the slides were then incubated with the appropriate amount of streptavidin-HRP for 30 min at room temperature. The slides were developed with a diaminobenzidine (DAB) substrate-chromogen system and were counterstained in hematoxylin. The measurement of the PCNA labeling index (PI) was calculated using the formula below.

[2] = tested on: CCD841 (normal human colon epithelial cells); assay: MTT assay on CCD841 cells; format: cell-based; conditions: mean ± SEM of three experiments
Protocol: (§2) CCD841 (normal human colon epithelial cells) and HT-29 (human colon cancer cells) were purchased from the American Type Cell Collection (ATCC, Manassas, VA, USA). The cells were maintained at 37°C in a humidified atmosphere of 5% CO2. The culture medium consisted of Dulbecco’s Modified Eagles medium (Sigma) that was supplemented with 10% Fetal Bovine Serum (PAA Laboratories, Pasching, […]), 100 μg/ml streptomycin (Sigma) and 100 U/ml penicillin (Sigma). The untreated medium containing 0.1% vehicle DMSO was applied as the negative control for all of the assays in the in vitro study.
(§3) Cell viability analysis was performed using the MTT assay as described previously. In brief, cells (5 × 10^4 cells/ml) at the exponential phase of growth were seeded in a 96-well plate and treated with serial concentrations of the tested agent (0.62, 1.25, 2.5, 5, 10, 20, 40 and 80 μg/ml) for 12, 24 and 48 h. 5-FU, a standard anticancer drug, was used as a positive control in this assay. After incubation, 20 μl of the MTT solution (5.0 mg/ml, Sigma) was loaded into each well, and the cells were further incubated at 37°C for 4 h. DMSO (150 μl) was then used to dissolve the formazan crystals. The cytotoxicity against cancer and normal cells was measured at the absorbance of 570 nm using an ELISA reader (Asys UVM340, Eugendorf, Austria). The data were then processed, and the antiproliferative potential of the tested agents was expressed as IC50 values, the concentration that causes a 50% inhibition of cell growth.

AOM-induced colonic ACF = assay: Counting of AOM-induced colonic aberrant crypt foci (methylene blue staining); format: in vivo, Sprague Dawley rats; conditions: group E
Protocol: The experiment was performed as previously described in detail. Thirty male rats (n = 6 per group) in five groups (negative control, cancer control, low dose of EEAML, high dose of EEAML and treatment control) were subcutaneously injected once a week for two consecutive weeks according to the “Induction” column in Table 1. Then, all of the rodents were orally fed once a day for two months based on the experimental design (Table 1), except for the treatment control group, which was intra-peritoneally injected with 35 mg/kg of 5-FU (Sigma, St. Louis, MO, USA) for five consecutive days. The condition of the animals was observed every morning throughout the experimental period.
To determine the intensity of colonic ACF formation after 10 weeks of injection with AOM, ACF counting was performed as previously described in detail. In brief, rats were anesthetized with a high dose of ketamine (30 mg/kg, 100 mg/mL) and xylazine (3 mg/kg, 100 mg/mL) under aseptic conditions. The excised colon was flushed with phosphate buffered saline (PBS, Sigma), opened longitudinally and fixed flat between filter papers overnight at 4°C using 10% buffered formalin. Equal lengths of the proximal and distal portions of the fixed colons were stained with 0.5% methylene blue solution. After washing away the excess stain, topographic analysis was performed under a light microscope (Nikon, Tokyo, Japan) to score the total number of ACF, as well as the number of crypts per focus.

PCNA = assay: Immunohistochemistry of colon tissue sections, PCNA labeling index; format: in vivo, Sprague Dawley rats; conditions: 5-FU 35 mg/kg, colon tissue of AOM-induced rats (cancer control PI 81%, negative control 4%)
Protocol: as §1
PI = number of positive cells/total number of epithelial cells ×100

[3] = tested on: HT-29 (human colon cancer cells); assay: MTT assay on HT-29 cells; format: cell-based; conditions: mean ± SEM of three experiments
Protocol: as §2, §3

Bcl-2 [4] = assay: Immunohistochemistry of colon tissue sections for Bcl-2; format: in vivo, Sprague Dawley rats; conditions: AOM-induced rats; EEAML both doses (250 and 500 mg/kg), 5-FU 35 mg/kg
Protocol: as §1

Bax [5] = assay: Q-PCR gene expression analysis of Bax; format: cell-based, human; conditions: HT-29, IC50 concentration, 48 h, normalized to β-actin
Protocol: (§4) The mRNA expression of two proteins, Bcl-2 and Bax, was quantified using real-time Q-PCR analysis as described previously with some modifications. […] The total RNA of treated cells was isolated using the RNeasy Plus Mini kit (Qiagen, Hilden, Germany) followed by the synthesis of the complementary DNA using the iScript cDNA synthesis kit (Biorad, Hercules, CA, USA). Q-PCR was performed on the StepOne PLUS real-time PCR machine (Applied Biosystems, Carlsbad, CA, USA). The β-actin housekeeping gene was used as a positive reference and was applied to normalize the target mRNA. The Q-PCR master mix was provided by Solaris Q-PCR Expression Assays (Thermo Fisher Scientific, Waltham, MA, USA) for the gene expression analysis of Bcl-2, AX-003307-00-0100; Bax, AX-003308-00-0100; and β-actin, AX-003451-00-0100.

Bcl-2 [6] = assay: Q-PCR gene expression analysis of Bcl-2; format: cell-based, human; conditions: HT-29, IC50 concentration, 12 to 48 h
Protocol: as §4

caspase 3/7 = assay: Caspase-Glo 3/7 luminescence assay; format: cell-based, human; conditions: HT-29, IC50 concentration, 12 to 48 h, vs control
Protocol: (§5) A luminescence-based analysis was performed to investigate the activity of caspase 3/7 and caspase 9 using the Caspase-Glo 9 Assay and Caspase-Glo 3/7 Assay commercial kits (Promega Corporation, Fitchburg, WI, USA) as described previously. […] After incubation, 100 μl of the caspase-Glo reagent was added to each well according to the manufacturer’s protocol. Luminescence, which represents the caspase activities, was measured using a luminescence microplate reader (Tecan Infinite 200 Pro).

Bcl-2 [7] = assay: Immunofluorescence analysis of Bcl-2; format: cell-based, human; conditions: HT-29, IC50 concentration, 12, 24 and 48 h, compared with control
Protocol: (§6) The perturbation in the protein expressions of Bcl-2 and Bax was investigated using immunofluorescence analysis as previously described in detail. […] After washing the cells twice with PBS, they were fixed in 4% paraformaldehyde at 25°C for 20 min prior to blocking with blocking buffer (0.03% Triton X-100/PBS and normal serum) for 1 h. The cells were then supplemented with a primary antibody solution and incubated overnight at 4°C. After incubation, the cells were treated with Bcl-2 and Bax flurochrome-conjugated secondary antibody (Santa Cruz Biotechnology, Santa Cruz, CA, USA) for 1 h. The cells were then washed twice with PBS prior to staining with DAPI. The stained cells were examined using the Cell Reporter cytofluorimeter system.

caspase 9 = assay: Caspase-Glo 9 luminescence assay; format: cell-based, human; conditions: HT-29, IC50 concentration, 12 to 48 h, vs control
Protocol: as §5

HT-29 cells [8] = assay: Cell cycle assay (PI staining, flow cytometry); format: cell-based, human; conditions: HT-29, IC50 concentration
Protocol: To determine the effect of annomuricin E on the cell cycle distribution, flow cytometric analysis was performed as described previously. […] After incubation, the treated HT-29 cells were harvested, washed twice with ice-cold PBS and fixed overnight at 4°C with 90% ethanol. The following day, the cells were washed and stained with propidium iodide (PI, 100 μl, 1 mg/ml). The cellular RNA was degraded using the enzyme RNAse A (200 μg/ml, Sigma). The stained cells were instantly examined using a BD FACSCanto II flow cytometer (BD Biosciences, San Jose, CA, USA) by analyzing 10,000 cells per sample. The data were processed using ModFit LT software (Verity Software House, Inc., Topsham, ME, USA).

HT-29 cells [9] = assay: Annexin V-FITC/PI detection of early and late apoptosis; format: cell-based, human; conditions: HT-29, IC50 concentration
Protocol: Flow cytometric analysis was performed to quantify early and late apoptosis in treated HT-29 cells using the commercial BD Pharmingen Annexin V-FITC Apoptosis Detection kit (APOAlert Annexin V; Clontech, Mountain View, CA, USA). […] After incubation, the treated cells were harvested, washed twice with PBS and suspended in the Annexin-V binding buffer. The cells were then supplemented with Annexin-V-FITC and PI, according to the vendor’s instructions. The stained cells were examined using a BD FACSCanto II flow cytometer. Early and late apoptotic cells and necrotic cells were quantitatively detected using a quadrant statistics analysis.

HT-29 cells [10] = assay: Multiple cytotoxicity assay (Cellomics Multiparameter Cytotoxicity 3 Kit); format: cell-based, human
Protocol: The simultaneous analysis of critical apoptosis markers, namely cell membrane permeability, cytochrome c leakage from the mitochondria, mitochondrial membrane potential (MMP) and total nuclear intensity, in HT-29 cells was performed using the Cellomics Multiparameter Cytotoxicity 3 Kit (Cellomics, Pittsburgh, PA, USA) as previously described in detail. […] After incubation, the treated cells were stained with a cell permeability dye (FITC), a cytochrome c dye (Cy3), a mitochondrial membrane potential dye (Cy5) and a nuclear dye (Hoechst 33342), according to the vendor’s protocol. The plates were analyzed using a Cell Reporter cytofluorimeter system (Gentix/Molecular Devices, United Kingdom).

HT-29 cells [11] = assay: LDH release assay; format: cell-based, human; conditions: HT-29, 24 h, compared with 0.1% DMSO control
Protocol: To further confirm the cytotoxic effects of annomuricin E on HT-29 cells, the LDH release assay was performed using the Pierce LDH Cytotoxicity Assay Kit (Thermo Scientific, Pittsburgh, PA, USA) as previously described. Briefly, HT-29 cells at the exponential phase of growth were treated with different concentrations of annomuricin E and Triton X-100 (positive control) for 24 h. After the incubation, the treated HT-29 cells were exposed to the LDH reaction solution (100 μl) for 30 min. The red color intensity, representing the level of released LDH, was then measured at 490 nm using the Tecan Infinite 200 Pro (Tecan, Männedorf, Switzerland) microplate reader. The result of LDH release was calculated as a percentage of the positive control.

Bax [12] = assay: Immunofluorescence analysis of Bax; format: cell-based, human; conditions: HT-29, IC50 concentration, 48 h
Protocol: as §6

[13] = 5-FU 35 mg/kg intra-peritoneally for five consecutive days, AOM-induced rats

IC50 ([3]; Homo sapiens, HT-29, 12 h, read-out: IC50): 4.85 ± 0.38 µg/mL (≈ 37.3 µM)
IC50 ([3]; Homo sapiens, HT-29, 24 h, read-out: IC50): 2.96 ± 0.43 µg/mL (≈ 22.8 µM)
IC50 ([3]; Homo sapiens, HT-29, 48 h, read-out: IC50): 1.5 ± 0.17 µg/mL (≈ 11.5 µM)
Compound: O=c1[nH]cc(F)c(=O)[nH]1 [5-FU, 5-fluorouracil]
Bax expression in colon tissues (Bax [1]): up-regulation
IC50 ([2]; Homo sapiens, CCD-841, CCD841, 12 h, read-out: IC50): 58.5 ± 2.09 µg/mL (≈ 450 µM)
IC50 ([2]; Homo sapiens, CCD-841, CCD841, 24 h, read-out: IC50): 44.4 ± 2.25 µg/mL (≈ 341 µM)
IC50 ([2]; Homo sapiens, CCD-841, CCD841, 48 h, read-out: IC50): 36.3 ± 0.43 µg/mL (≈ 279 µM)
No. of crypts per ACF: 1 crypt (AOM-induced colonic ACF; [13]): 12 ± 0.26
No. of crypts per ACF: 2 crypt (AOM-induced colonic ACF; [13]): 6 ± 0.45
No. of crypts per ACF: 3 crypt (AOM-induced colonic ACF; [13]): 7 ± 0.78
No. of crypts per ACF: 4 crypt and more (AOM-induced colonic ACF; [13]): 4 ± 0.18
Total ACF (AOM-induced colonic ACF; [13]): 29 ± 1.40
Inhibition of ACF formation (AOM-induced colonic ACF; 5-FU 35 mg/kg intra-peritoneally, compared with cancer control): 79.5%
PCNA labeling index (PI) (PCNA): 24%
Bcl-2 expression in colon tissues (Bcl-2 [4]): down-regulation

Compound: annomuricin E
Bax mRNA expression, increase relative to control (Bax [5]): approximately 5 fold
IC50 ([2]; CCD841, 12 h): 64.32 ± 3.76 µg/mL
IC50 ([2]; CCD841, 24 h): 47.10 ± 0.47 µg/mL
IC50 ([2]; CCD841, 48 h): 32.51 ± 1.18 µg/mL
Bcl-2 mRNA expression (Bcl-2 [6]): time-dependently reduced
IC50 ([3]; HT-29, 12 h): 5.72 ± 0.41 µg/mL
IC50 ([3]; HT-29, 24 h): 3.49 ± 0.22 µg/mL
IC50 ([3]; HT-29, 48 h): 1.62 ± 0.24 µg/mL
Caspase 3/7 activity (caspase 3/7): significantly elevated
Bcl-2 protein expression (Bcl-2 [7]): significantly and dose-dependently reduced
Caspase 9 activity (caspase 9): significantly elevated
Percentage of cells arrested at the G1 phase (HT-29 cells [8]; 24 h): 89.65%
Percentage of cells arrested at the G1 phase (HT-29 cells [8]; 48 h): 94.60%
Percentage of late apoptotic cells (Annexin V+/PI+) (HT-29 cells [9]; 12 h (control 0.5%)): 6.9%
Percentage of early apoptotic cells (Annexin V+/PI-) (HT-29 cells [9]; 12 h (control 3.6%)): 13.9%
Percentage of early apoptotic cells (Annexin V+/PI-) (HT-29 cells [9]; 24 h (peak)): 27.3%
Percentage of late apoptotic cells (Annexin V+/PI+) (HT-29 cells [9]; 24 h (peak)): 13.6%
Total nuclear intensity (HT-29 cells [10]; HT-29, IC50 concentration, 12, 24 and 48 h): significantly elevated
Mitochondrial membrane potential (MMP) (HT-29 cells [10]; HT-29, IC50 concentration, 12 h): significant collapse
Cytochrome c leakage from the mitochondria (HT-29 cells [10]; HT-29, IC50 concentration, from 12 h, time-dependent): increase in cytochrome c leakage
Cell membrane permeability (HT-29 cells [10]; HT-29, IC50 concentration, only 24 and 48 h): significantly increased
Lowest concentration with significant LDH leakage (HT-29 cells [11]): 4 µg/mL
Bax protein expression (FITC fluorescent intensity), increase relative to control (Bax [12]): approximately 10 fold
